The test system of data set [1] is adenovirus (AdV). Kind of data set: Analysis of AdV content in stool of patients by quantitative PCR. The class given is in vivo, human. Particulars: for patients in whom AdV content in stool was reduced to ND during the study period: ND = not detected. The source says: In the clinical study of Example 1, the AdV contents in the stools of patients were examined. […] In the figure, D means detected, ND means not detected, and NP means not performed. A quantitative PCR method was used to analyze AdV contents.

Data set [2] is described as follows: Analysis of lymphocytes: absolute lymphocyte count of a patient in cohort 3. As to conditions: patient 110-05 in cohort 3 (0.4 mg/kg IV twice weekly). The class given is in vivo, human. An excerpt: In the clinical study of Example 1, the absolute lymphocyte count in the plasma of the patient 110-05 in cohort 3 was examined.
Data set [3] is described as follows: PK of BCV in plasma with or without concomitant cyclosporine. The class given is in vivo, human. Particulars: for increase of AUCinf of BCV in plasma compared with BCV alone / increase of Cmax of BCV in plasma compared with BCV alone: healthy subjects. The source says: Subjects 101-12 of cohort 2, and 101-15, 101-18 and 110-06 of cohort 3 took cyclosporine, an immunosuppressive drug, during the treatment period (duration of treatment) of intravenous BCV. Prior PK studies in healthy subjects have shown a significant increase in plasma BCV exposure with concomitant intravenous infusion of BCV and cyclosporine. […] In view of the above, for the above patients taking cyclosporine, any of the doses indicated in 1.1.3 (cohorts 1-3) above is reduced to 60% for administration. Note that when cyclosporine is administered as BID (twice daily) oral or injectable form, the administration is conducted with an interval of 2 hours after the completion of intravenous BCV. In the case of continuous infusion of cyclosporine for 24 hours, no interval is needed.
Prior PK studies in healthy subjects have shown a significant increase in plasma BCV exposure with concomitant intravenous infusion of BCV and cyclosporine. […] In view of the above, for the above patients taking cyclosporine, any of the doses indicated in 4.1.3 (cohorts 4-6) above is reduced to 60% for administration. Note that when cyclosporine is administered as BID (twice daily) oral or injectable form, the administration is conducted with an interval of 2 hours after the completion of intravenous BCV. In the case of continuous infusion of cyclosporine for 24 hours, no interval is needed.

For data set [4], the system named is adenovirus (AdV). Kind of data set: Human clinical study of once-weekly IV BCV (Example 4): viral load of AdV in plasma. The class given is in vivo. Particulars: cohorts 4-6: 0.4, 0.6 or 0.8 mg/kg (20, 30 or 40 mg/dose if body weight ≥50 kg) IV once weekly. On the procedure:
A human clinical study on the treatment of AdV infectious disease is conducted according to the following procedure. Patients aged 2 months or older who have asymptomatic AdV infection or AdV disease and have an underlying immunocompromised state, including hematopoietic stem cell transplant recipients before the immune reconstitution by the graft cells is achieved, organ transplant recipients on medication with an immunosuppressant, and patients with immunodeficiency syndrome. […] For patients who, at the physician's discretion, are assessed as being at high risk for AdV infection/recurrence of disease, the treatment period may be extended for up to 10 weeks, even after the 4-week treatment period is completed, if the AdV is not detected by the two most recent consecutive assays with an interval of 3 days at least. […] Adverse events are evaluated according to the National Cancer Institute Common Terminology Criteria for Adverse Events (NCI CTCAE) version 5.0 (grade 1-5). […]

Setting [5] is: BCV IV and cyclosporine administered simultaneously.
The mark [6] stands for this setting: cyclosporine administered at 2 hours after the end of intravenous BCV infusion over 2 hours.

Turning to `CCCCCCCCCCCCCCCCOCCCOP(=O)(O)CO[C@H](CO)Cn1ccc(N)nc1=O` [BCV, [(2S)-1-(4-amino-2-oxopyrimidin-1-yl)-3-hydroxypropan-2-yl]oxymethyl-(3-hexadecoxypropoxy)phosphinic acid], the “patients in whom AdV content in stool was reduced to ND during the study period” value in the data set with adenovirus (AdV) [1] (cohort 2: 0.3 mg/kg IV twice weekly) is recorded as 2 of 9; in the data set on adenovirus (AdV) [1] (cohort 3: 0.4 mg/kg IV twice weekly), 5 of 8. For the same compound, the “cases reduced to ND in which AdV was detected in stool in the following week” value with adenovirus (AdV) [1] (cohort 2: 0.3 mg/kg IV twice weekly, of the two cases) is reported as “one”. Besides, the “number of lymphocytes (absolute lymphocyte count)” value in data set [2] was “tended to increase”. Moreover, in data set [3] (BCV administered alone), the “AUCinf and Cmax of BCV in plasma, cohort 3 patients versus healthy controls” value is given as “substantially the same”. For the same compound, the results for the “increase of AUCinf of BCV in plasma compared with BCV alone” value in data set [3] (setting [5]) and in data set [3] (setting [6]) were “approximately 3.4 fold” and “approximately 1.8 fold”, respectively. Further, the results for the “increase of Cmax of BCV in plasma compared with BCV alone” value in data set [3] (setting [5]) and in data set [3] (setting [6]) were around 2.3 fold and around 1.3 fold, respectively. For the same compound, the “effect of cyclosporine administration on the blood concentration of BCV” value in data set [3] (statement in the embodiments, no test described) is on record as “does not affect”. In addition, the “levels of viral load of AdV during the study period” value in the data set with adenovirus (AdV) [4] is reported as “reaches below the LOD”.

The values are drawn from US12544392B2, “Treatment of adenovirus infection or disease associated with adenovirus infection” (SymBio Pharmaceuticals Limited, priority 2023, dated 2026).
